Our source for the MIC and P50 values is US6337317B1, “Antimicrobial peptides and methods of use thereof” (priority 2000, dated 2002).

Experiment [1] relates to E. coli DC2. The format is cell-based, Escherichia coli. To be noted: E. coli DC2 (outer membrane deficient mutant). The procedure:
(§1) The biological activity of the peptides can be determined by standard methods known to those of skill in the art, such as a “minimal inhibitory concentration” (MIC) assay (see Wu and Hancock (1999) J. Biol Chem. 274:29-35 and Examples section). A MIC assay allows the determination of the lowest concentration of peptide that inhibits the multiplication and growth of mircoorganisms. Changes in the microorganism population are assessed by measuring the optical density (OD) of the population in broth or medium. Peptide MIC's can be determined for a variety of micoorganisms under a variety of conditions. Another assay for the biological activity of the peptides is a “fractional inhibitory concentration” (FIC) assay. This assay is especially useful for determining synergistic effects between the peptides of the invention, and between invention peptides and other compounds such as known antibiotics. A FIC assay employs the strategy of a MIC assay with additional variable(s), e.g., known antibiotics. […] The FIC is calculated by looking at the impact of an antibiotic on the MIC of the peptide and the reciprocal relationship. […] As used herein, FIC can be determined as follows: […]
(§2) MIC Assay p The minimum inhibitory concentrations of (MIC) of several invention peptides were determined using methods described elsewhere (Wu and Hancock, (1999) J. Biol Chem. 274:29-35). […]

Experiment [2] concerns E. coli KF130. The format is cell-based, Escherichia coli. The procedure: as §1, §2
Experiment [3] concerns intact cells of E. coli UB1005. The experiment can be described thus: NPN uptake assay, outer membrane permeabilization. The experiment is classed as cell-based, Escherichia coli. Conditions: peptide concentration leading to 50% of maximal increase in NPN uptake. As to the method: The outer membrane permeabilization activity of invention peptides was determined by the 1-N-phenylnapthylamine (NPN) uptake assay of Loh et al. ((1984) Antimicor. Agents Chemother. 26:546-551), using intact cells of E. coli UB1005.
The cytoplasmic membrane depolarization activity of the peptides was determined (Wu and Hancock (1999) J. Biol. Chem. 274:29-35) using the membrane potential sensitive dye 3,3-dipropylthiacarbocyanine diSC35 (28) and E. coli DC2. Bacterial cells in mid-log phase were centrifuged, washed in 5 mM HEPES, pH 7.8, and resuspended in the same buffer to an OD600 of 0.05. A stock solution of diSC35 was added to a final concentration of 0.4 μM and quenching was allowed to occur at room temperature for 20-30 min. Then KCl was added to the cell suspension to a final concentration of 100 mM to equilibrate the cytoplasmic and external K^+ concentrations. A 2-mL cell suspension was placed in a 1 cm cuvette and the desired concentration of tested peptide was added. Changes in fluorescence due to the disruption of the membrane potential in the cytoplasmic membrane were continuously recorded using a Perkin-Elmer model 650-10S spectrofluorimeter at an excitation wavelength of 622 nm and an emission wavelength of 670 nm. The concentration of peptide leading to a 50% of maximal increase in NPN uptake was recorded as the P50.
Therefore, an increase in fluorescence in the presence of a peptide indicates the ability of peptide to permeabilize the bacterial outer membrane.

In experiment [4] the test system is P. aeruginosa H744. The format is cell-based, Pseudomonas aeruginosa. As to the method: as §1, §2
The test system of experiment [5] is P. aeruginosa H374. The experiment is classed as cell-based, Pseudomonas aeruginosa. The procedure: as §1, §2
In experiment [6] the test system is Candida albicans. The format is cell-based. To be noted: Candida albicans clinical lab isolate. As to the method: (§3) The biological activity of the peptides can be determined by standard methods known to those of skill in the art, such as a “minimal inhibitory concentration” (MIC) assay (see Wu and Hancock (1999) J. Biol Chem. 274:29-35 and Examples section). A MIC assay allows the determination of the lowest concentration of peptide that inhibits the multiplication and growth of mircoorganisms. Changes in the microorganism population are assessed by measuring the optical density (OD) of the population in broth or medium. Peptide MIC's can be determined for a variety of micoorganisms under a variety of conditions. Another assay for the biological activity of the peptides is a “fractional inhibitory concentration” (FIC) assay. This assay is especially useful for determining synergistic effects between the peptides of the invention, and between invention peptides and other compounds such as known antibiotics. A FIC assay employs the strategy of a MIC assay with additional variable(s), e.g., known antibiotics. One type of FIC assay is performed in a microwell plate containing microorganisms in broth. Peptides, in a range of dilutions, is added to each well following a patter of one dimension of the microwell plate, and antibiotics, in the other dimension. The FIC is calculated by looking at the impact of an antibiotic on the MIC of the peptide and the reciprocal relationship. […] Preferably, an FIC of less than 0.5 is obtained for synergism. As used herein, FIC can be determined as follows:
(§4) The bacterial strains used for antimicrobial activity assays included E. coli UB1005 (F^−, nalA37, metB1) and its outer membrane deficient mutant DC2 (16), E. coli KF130 (gyrA) (Hooper et al. (1987) Am. J. Med. 82:(Suppl. 4A),12-20), wild tppe strains of S. typhimurium 14028s (Fields et al. (1989) Science 243:1059-1062), S. aureus ATCC25923, S. aureus SAP0017 and R147. Also included was a clinical isolate of S. epidermidis were obtained from Dr. D. Speert, Department of Medicine, University of British Columbia, and P. aeruginosa PAO1 (Hancock and Carey (1979) J. Bacteriol. 140:902-910), H374 and H744 (Poole et al. (1993) J. Bacterial.175:7363-7372.) and E. faecalis ATCC 29212. Antifungal activity was tested using a clinical lab isolate of Candida albicans. All the strains were grown in Mueller Hinton (MH) broth (Difco Laboratories, Detroit, Mich.) at 37° C. unless otherwise indicated. The lipopolysaccharides (LPS) of E. coli UB1005 and P. aeruginosa H103 used for the dansyl-polymyxin B replacement assay were isolated as described by Moore et al. ((1986) Antimicrobial. Agents Chemother. 29:496-500). Polymyxin B, 1-N-phenylnapthylamine (NPN), carbonyl cyanide-m-chlorophenyl hydrazone (CCCP), Re LPS from S. Minnesota R595 (Re mutant) and LPS from E. coli 0111 :B4 were purchased from Sigma Chemicals Co. (St. Louis, Mo.). Dansyl polymyxin B was synthesized as described previously (Moore et al. (1986) Antimicrobial. Agents Chemother. 29:496-500). The lipids 1-pamitoyl-2-oleoyl-sn-glycero-3-phosphocholine (POPC), 1-palmitoyl-2-oleoyl-sn-glycero-3-phosphoglycerol (POPG), 1-palmitoyl-2-oleoyl-sn-glycero-3-phosphoethanolamine (POPE) and phosphatidylglycerol from egg yolk (egg-PG) were purchased from Avanti Polar Lipids Inc. (Alabaster, Ala.). The fluorescent dye 3,3-dipropylthiacarbocyanine (diSC35) was purchased from Molecular Probes (Eugene, Oreg.).
(§5) MIC Assay p The minimum inhibitory concentrations of (MIC) of several invention peptides were determined using methods described elsewhere (Wu and Hancock, (1999) J. Biol Chem. 274:29-35). Cells were grown overnight at 37EC in LB-S (Luria broth without any salt supplement) and diluted one in 10,000 in the same medium to give concentrations of about 10^4 to 10^5 CFU/ml. The broth dilutions were set up in a 96-well microtiter plate by putting 200 μl of LB-S containing the initial concentration of antibiotic or compound in column 1 and 100 Φl of the same medium in columns 2-12. […]

In experiment [7] the test system is Pseudomonas aeruginosa PAO1. The experiment is classed as cell-based. The procedure:
as §3, §4, §5

The subject of experiment [8] is Staphylococcus aureus ATCC 25923. The format is cell-based. As to the method: as §3, §4, §5
The test system of experiment [9] is Escherichia coli UB1005. The experiment is classed as cell-based. As to the method: as §3, §4, §5
The test system of experiment [10] is Enterococcus facaelis. The experiment is classed as cell-based. As to the method:
as §3, §4, §5

In experiment [11] the test system is Staphylococcus epidermidis. The format is cell-based. To be noted: Staphylococcus epidermidis clinical isolate. As to the method:
as §3, §4, §5

Experiment [12] relates to Salmonella typhimurium 14028s. The format is cell-based. As to the method:
as §3, §4, §5

Where a SMILES comes first, the peptide text is derived from it.

For `CC(C)[C@@H]1NC(=O)[C@H](CCCNC(=N)N)NC(=O)[C@H](Cc2ccccc2)NC(=O)[C@@H](NC(=O)[C@H](Cc2c[nH]c3ccccc23)NC(=O)[C@H](CCCNC(=N)N)NC(=O)[C@@H](N)CCCNC(=N)N)CSSC[C@@H](C(=O)N[C@@H](CCCNC(=N)N)C(N)=O)NC(=O)[C@H](CCCCN)NC(=O)[C@H](CCCNC(=N)N)NC(=O)[C@H](Cc2ccc(O)cc2)NC(=O)[C@@H]2CSSC[C@H](NC1=O)C(=O)N[C@@H](Cc1ccc(O)cc1)C(=O)N[C@@H](CCCNC(=N)N)C(=O)NCC(=O)N[C@@H](Cc1ccccc1)C(=O)N2` [Polyphemusin I] (HELM PEPTIDE1{R.R.W.C.F.R.V.C.Y.R.G.F.C.Y.R.K.C.R.[am]}$PEPTIDE1,PEPTIDE1,4:R3-17:R3|PEPTIDE1,PEPTIDE1,8:R3-13:R3$$$V2.0; N-terminus and C-terminus assumed), the MIC was found to be 0.125 µg/mL in [1]; 0.125 µg/mL in experiment [2]; 0.25 µg/mL in experiment [4]; 0.25 µg/mL in experiment [5]; 1 µg/mL in experiment [6]; 0.25 µg/mL in experiment [7]. The MIC in [8] was determined as 0.5 µg/mL; in experiment [9] it was 0.125 µg/mL; in experiment [10], 0.25 µg/mL; in experiment [11] it was 0.25 µg/mL; in experiment [12] it was 0.25 µg/mL. The compound also came in with a P50 in experiment [3] of 2.8 µg/mL.

In general, MIC refers to the lowest concentration found to suppress growth.
